Test [1] has as its target T1, WD repeat-containing protein 5 (Homo sapiens, UniProt P61964).
Description: Binding affinity to recombinant WDR5 (unknown origin) expressed in Escherichia coli BL21 assessed as shift in melting temperature by DSF assay
Test [2] deals with T1, WD repeat-containing protein 5. As to the kind of experiment: Displacement of N-(4'-((17-(5,5-difluoro-7-(1H-pyrrol-2-yl)-5H-5l4,6l4-dipyrrolo[1,2-c:2',1'-f][1,3,2]diazaborinin-3-yl)-15-oxo-4,7,10-trioxa-14-azaheptadecyl)carbamoyl)-4-(4-methylpiperazin-1-yl)-[1,1'-biphenyl]-3-yl)-6-hydroxy-4-(trifluoromethyl)nicotinamide tracer from N-/C-terminal NanoLuc-fused full-length WDR5 (unknown origin) transfected in HEK293T cells incubated for 2 hrs by NanoBRET assay. In kind it is cell-based. In general terms: Bioluminescence resonance energy transfer reports proximity on the nanometre scale.

Test [3] has the same target. Description: Displacement of N-(4'-((17-(5,5-difluoro-7-(1H-pyrrol-2-yl)-5H-5l4,6l4-dipyrrolo[1,2-c:2',1'-f][1,3,2]diazaborinin-3-yl)-15-oxo-4,7,10-trioxa-14-azaheptadecyl)carbamoyl)-4-(4-methylpiperazin-1-yl)-[1,1'-biphenyl]-3-yl)-6-hydroxy-4-(trifluoromethyl)nicotinamide tracer from N-/C-terminal NanoLuc-fused full-length WDR5 (unknown origin) transfected in HEK293T cell lysate incubated for 2 hrs by NanoBRET assay. In kind it is subcellular.

Test [4] relates to MV4-11. As to the kind of experiment: Cytotoxicity against human MV4-11 cells expressing VHL assessed as defect in cell proliferation at 5 to 10 uM incubated for 15 days with replacement of fresh medium containing compound on every third day. In kind it is functional, cell-based. Particulars: dose 5-10 µM, time 15.0 day.
The subject of test [5] is MV4-11. Description: Cytotoxicity against human MV4-11 cells assessed as defect in cell proliferation at 10 uM incubated for 15 days with replacement of fresh medium containing compound on every third day. In kind it is functional, cell-based. Particulars: time 15.0 day.
Test [6] addresses T1, WD repeat-containing protein 5. As to the kind of experiment: Binding affinity to recombinant WDR5 (unknown origin) expressed in Escherichia coli BL21 assessed as dissociation constant by isothermal titration calorimetry.
Test [7] has the same target. The source holds these as a separate data set.
Description: Binding affinity to recombinant WDR5 (unknown origin) expressed in Escherichia coli BL21 assessed as change in enthalpy by isothermal titration calorimetry
The target is the same in test [8]. This is another data set of the same source.
Description: Binding affinity to recombinant WDR5 (unknown origin) expressed in Escherichia coli BL21 assessed as change in entropy by isothermal titration calorimetry

The source made the active and inactive calls. No cut-off for these calls is given here.

In general, IC50 refers to the point on the concentration scale where inhibition reaches its midpoint. Low values mean inhibition by little substance, high ones a need for much substance. Usually Kd stands for a measure of binding affinity in units of concentration.

In turn, `COc1cc(C(=O)NCc2ccc(CNC(=O)c3ccc(-c4ccc(N5CCN(C)CC5)c(NC(=O)c5c[nH]c(=O)cc5C(F)(F)F)c4)cc3)cc2)ccc1NC(=O)[C@@H]1N[C@@H](CC(C)(C)C)[C@](C#N)(c2ccc(Cl)cc2F)[C@H]1c1cccc(Cl)c1F` returned a deltaTm in test [1] of 0.7 K. Further, the IC50 in test [2] and in test [3] was not below 50 µM throughout.
In the case of `COc1cc(C(=O)NCCOCCNC(=O)c2ccc(-c3ccc(N4CCN(C)CC4)c(NC(=O)c4c[nH]c(=O)cc4C(F)(F)F)c3)cc2)ccc1NC(=O)[C@@H]1N[C@@H](CC(C)(C)C)[C@](C#N)(c2ccc(Cl)cc2F)[C@H]1c1cccc(Cl)c1F`, the deltaTm in test [1] came to 0.9 K. The IC50 in test [2] and in test [3] was not below 50 µM throughout.
In the case of `Cc1ncsc1-c1ccc(CNC(=O)[C@@H]2C[C@@H](O)CN2C(=O)[C@@H](NC(=O)CCOCCOCCOc2ccc(-c3cn4c(n3)CCC4)cc2CNC(=O)Cc2ccc(Cl)c(Cl)c2)C(C)(C)C)cc1`, the result with MV4-11 [4] and in the test with MV4-11 [5] was Active.
In test [1], `Cc1ncsc1-c1ccc(CNC(=O)[C@@H]2C[C@@H](O)CN2C(=O)[C@@H](NC(=O)CCOCCOCCOCCOCCOCCOCCOc2ccc(-c3cn4c(n3)CCC4)cc2CNC(=O)Cc2ccc(Cl)c(Cl)c2)C(C)(C)C)cc1` registered a deltaTm of 4.5 K. In addition, the IC50 in test [2] and in test [3] was not below 50 µM each time.
In turn, `Cc1ncsc1-c1ccc(CNC(=O)[C@@H]2C[C@@H](O)CN2C(=O)[C@@H](NC(=O)CCOCCOCCOCCOCCOCCOCCOCCOc2ccc(-c3cn4c(n3)CCC4)cc2CNC(=O)Cc2ccc(Cl)c(Cl)c2)C(C)(C)C)cc1` yielded a deltaTm in test [1] of 4.6 K. Further, the IC50 in test [2] and in test [3] was not below 50 µM in each case.
With `COc1cc(C(=O)NCCOCCOCCOCCOCCOCCOCCOCCNC(=O)c2ccc(-c3ccc(N4CCN(C)CC4)c(NC(=O)c4c[nH]c(=O)cc4C(F)(F)F)c3)cc2)ccc1NC(=O)[C@@H]1N[C@@H](CC(C)(C)C)[C@](C#N)(c2ccc(Cl)cc2F)[C@H]1c1cccc(Cl)c1F`, the deltaTm in test [1] stood at 0.3 K. The IC50 in test [2] and in test [3] was not below 50 µM in each case.
In turn, `Cc1ncsc1-c1ccc(CNC(=O)[C@@H]2C[C@@H](O)CN2C(=O)[C@@H](NC(=O)CCOCCOCCOCCOCCOc2cc(-c3cn4c(n3)CCC4)ccc2CNC(=O)Cc2ccc(Cl)c(Cl)c2)C(C)(C)C)cc1` displayed a deltaTm in test [1] of 3.4 K. Further, the IC50 in test [2] and in test [3] was not below 50 µM throughout.
For `Cc1ncsc1-c1ccc(CNC(=O)[C@@H]2C[C@@H](O)CN2C(=O)[C@@H](NC(=O)CCOCCOc2ccc(-c3cn4c(n3)CCC4)cc2CNC(=O)Cc2ccc(Cl)c(Cl)c2)C(C)(C)C)cc1`, the deltaTm in test [1] amounted to 7 K. Moreover, the IC50 in test [2] and in test [3] was not below 50 µM throughout.
With `COc1ccc(-c2cn3c(n2)CCC3)cc1CNC(=O)Cc1ccc(Cl)c(Cl)c1`, in test [1] (filed as modulator), the deltaTm turned out to be 4.2 K. The IC50 in test [2] and in test [3] was not below 50 µM each time. The Kd in test [6] came out at 125 µM. The compound further yielded a deltaH in test [7] of -10 kcal/mol. Also, the TdeltaS in test [8] came out at 0.7 kcal/mol.
In the case of `Cc1ncsc1-c1ccc(CNC(=O)[C@@H]2C[C@@H](O)CN2C(=O)[C@@H](NC(=O)CCOCCOCCOCCOc2ccc(-c3cn4c(n3)CCC4)cc2CNC(=O)Cc2ccc(Cl)c(Cl)c2)C(C)(C)C)cc1`, the deltaTm in test [1] is 3.6 K. Besides, the IC50 in test [2] and in test [3] was not below 50 µM throughout.
Consider `Cc1ncsc1-c1ccc(CNC(=O)[C@@H]2C[C@@H](O)CN2C(=O)[C@@H](NC(=O)CCOCCOCCOCCOCCOCCOc2ccc(-c3cn4c(n3)CCC4)cc2CNC(=O)Cc2ccc(Cl)c(Cl)c2)C(C)(C)C)cc1`, for which the deltaTm in test [1] amounted to 4.3 K. Moreover, the IC50 in test [2] and in test [3] was not below 50 µM each time.

Values taken from ChEMBL document CHEMBL5149987, “Design, Synthesis, and Evaluation of WD-Repeat-Containing Protein 5 (WDR5) Degraders” (J Med Chem, 2021).
